{"source": "patent US10517926B2", "about": "“Oligopeptide having proinflammatory cytokine secretion-inhibiting activity” (Osaka University, priority 2015, dated 2019)", "format_in_all_cases": "cell-based, mouse", "key": {"NFκB (p65)": {"tested_on": "NFκB (p65)", "experiment": "NFκB (p65) activation (TransAM NFkB p65 Kit)", "conditions": "RAW264.7 cells; MHP1 100 μg/ml, 10 minutes; FIG. 12C", "protocol": "It has recently been reported that the administration of RANKL protein to mice induces the activation of osteoclasts. Accordingly, the influence of the RANKL peptide on osteoclasts was examined. The specific examination procedures were as follows. MHP1 (final concentration: 100 μg/ml) or RANKL protein (final concentration: 10 ng/ml) was added to a medium (DMEM medium (+4% FBS)) in which RAW264.7 cells were cultured, and the cells were collected after 10 minutes and 3 days.\nFor the samples collected after 10 minutes, nuclear proteins of the cells were extracted using the Nuclear Extract Kit (Active Motif), and the degree of NFκB (p65) activation was measured by the TransAM NFkB p65 Kit (Active Motif). On the other hand, for the samples collected after 3 days, the mRNA expression levels of NFATc1 and ACP5 were analyzed by real-time RT-PCR."}, "[1]": {"tested_on": "neuron-glia mixed culture", "experiment": "TNFα secretion by LPS in neuron-glia mixed culture system", "protocol": "Neuronal tissue (a mixture of neurons and glial cells) was removed from a mouse fetus 21 days after fertilization (21st fetal day), and cultured in Neurobasal medium (+B-27, +5% HS) for 9 days. Then, the cells were divided into 3 groups (A to C groups), and subjected to the following treatments.\nThe cells were cultured for 24 hours after the medium was changed to a medium (Neurobasal A/N2 supplement) containing MHP1 (final concentration: 1, 10, 30, or 50 μg/ml). Then, LPS (final concentration: 10 μg/ml) was added to the medium, and the cells were further cultured for 24 hours. After culture, the concentration of TNFα in the medium was measured by the ELISA method.\nThe cells were cultured for 24 hours after the medium was changed to a medium (Neurobasal A/N2 supplement) containing MHP1 (final concentration: 30 or 50 μg/ml) and LPS (final concentration: 10 μg/ml). After culture, the concentration of TNFα in the medium was measured by the ELISA method."}, "MG6 cells [2]": {"tested_on": "MG6 cells", "experiment": "Stability of RANKL peptide: activity after storage in water", "conditions": "2 mg/ml in water, 4° C., 208 days", "protocol": "MG6 cells (mouse-derived microglial cell line) were cultured in a DMEM medium (+4% FBS) containing MHP1 or MHP2 (final concentration: 50 or 100 μg/ml), and LPS (final concentration: 2 ng/ml) for 24 hours by a standard method. After culture, the concentrations of IL-6 and TNFα in the medium were measured by the ELISA method. In the Examples of the present application, the ELISA method was performed using a kit (Quantikine ELISA Mouse TNF-α or Quantikine ELISA Mouse IL-6, produced by R&D Systems). The results are shown in FIG. 1 (IL-6) and FIG. 2 (TNFα).\nMHP1 was dissolved in water to a concentration of 2 mg/ml, and stored at 4° C. for 208 days. Thereafter, the proinflammatory cytokine secretion-inhibiting effect of this MHP1 was examined in the same manner as in Example 2, except that the final concentration of MHP1 was set to 100 μg/ml."}, "MG6 cells [3]": {"tested_on": "MG6 cells", "experiment": "M1 shift of microglial cells by LPS (FACS)", "conditions": "MHP1 100 μg/ml, LPS 2 ng/ml, 24 hours; FIG. 8", "protocol": "MG6 cells (mouse-derived microglial cell line) were cultured in a DMEM medium (+4% FBS) containing MHP1 (final concentration: 100 μg/ml) or RANKL protein (Recombinant Murin sRANKL Ligand (Cat No. 315-11): produced by Peprotech) (final concentration: 10 ng/ml), and LPS (final concentration: 2 ng/ml) for 24 hours by a standard method. After culture, the cells were washed with PBS, and Fc receptor blocking was performed using mouse IgG. Thereafter, F4/80-FITC (microglia marker antibody) and CD206-APC (M2 marker antibody) were added, and reacted at 4° C. for 30 minutes in a dark place. After the reaction, the cells were washed with PBS, and the percentage of microglia marker-positive and M2 marker-positive (M2 state) cells, and the percentage of microglia marker-positive and M2 marker-negative (M1 state) cells were measured by FACS analysis (FACSCanto II, produced by BD Biosciences)."}}, "data": [{"sequence": "LMVYVVKTSIKIPSSHNLMKGGSTKNWSGN (listed as Mus musculus) [MHP1]", "values": [{"measurement": "NFκB (p65) activation", "setting": "NFκB (p65)", "result": "slightly activated"}, {"measurement": "increase in the amount of TNFα secretion by LPS", "setting": "[1]; pretreatment (A group), MHP1 1, 10, 30 or 50 μg/ml 24 hours before LPS 10 μg/ml, FIG. 5", "result": "suppressed"}, {"measurement": "increase in the amount of TNFα secretion by LPS", "setting": "[1]; simultaneous treatment (C group), MHP1 30 or 50 μg/ml with LPS 10 μg/ml, 24 hours, FIG. 7", "result": "suppressed"}, {"measurement": "stability", "setting": "MG6 cells [2]", "result": "high"}, {"measurement": "proinflammatory cytokine secretion-inhibiting effect after long-term storage", "setting": "MG6 cells [2]; tested at 100 μg/ml on MG6 cells, FIG. 18", "result": "exhibited a proinflammatory cytokine secretion-inhibiting effect"}, {"measurement": "M1 shift caused by LPS", "setting": "MG6 cells [3]", "result": "suppressed"}]}]}
